# Measured values from publication PMC6777777 (PLoS ONE, 2019).
# Assays:
# [1] = molecular target: T1, nicotinic acetylcholine receptor (nAChR) from Torpedo californica (Tetronarce californica, UniProt P02710+P02712+P02714+P02718); experiment: Two-electrode voltage clamp: inhibition of carbachol-stimulated nAChR current; format: cell-based
# T1 construct: flash-frozen Torpedo electric organ was purchased from Aquatic Research Consultants (San Pedro, CA); tissue Aquatic Research Consultants (San Pedro, CA); host or cells: Torpedo electric organ; Membranes were solubilized in cholate, reconstituted in asolectin liposomes and microinjected as protein into Xenopus oocytes
# [2] = Titration curve of T3 (pK values); format: physicochemical
# [3] = molecular target: T1, nicotinic acetylcholine receptor (nAChR) from Torpedo californica; experiment: Two-electrode voltage clamp of oocytes injected with Torpedo nAChRs: inhibition of acetylcholine-stimulated current; format: cell-based; conditions: seen at ≥ 100 μM inhibitor, 30 μM acetylcholine
# Description: (§1) Sixteen hours after injection, the oocytes were clamped using a TEVC system. All ligands were dissolved in modified Barth’s solution at the indicated pH and were perfused into the chamber using a gravity-flow system. Thyroid hormones were initially dissolved in 0.1 M NaOH. […] Acetylcholine was applied to the bath surrounding the oocyte using a gravity-flow system at 10–13 mL/min. […] Each ligand perfusion lasted 60–70 seconds; after each perfusion, the bath solution was exchanged with ligand-free buffer until the current response signal had returned to baseline for at least 120 seconds before the next application of ligand(s). Data were recorded using iWorx LabScribe v1.959.
# [4] = molecular target: T1, nicotinic acetylcholine receptor (nAChR) from Torpedo californica; experiment: TEVC desensitization kinetics: decay response of nAChR current, slow component of two-exponential fit; format: cell-based; parameters: unit not given here
# Description: as §1
# The data were then trimmed to begin with the response as it reached 0.96 of the response peak (to avoid false inflection points by signal noise just after the response’s maximum point), and end 35 seconds post-peak. The data were then fit to a two-degree exponential function (i.e., slow and fast response; y=a×e^−(x/A1)+b×e^−(x/A2) ). […] For each ligand/environmental condition (n = 3, per condition), decay response and amplitude were calculated and averaged.
# T1 sequence (P02710 25-461): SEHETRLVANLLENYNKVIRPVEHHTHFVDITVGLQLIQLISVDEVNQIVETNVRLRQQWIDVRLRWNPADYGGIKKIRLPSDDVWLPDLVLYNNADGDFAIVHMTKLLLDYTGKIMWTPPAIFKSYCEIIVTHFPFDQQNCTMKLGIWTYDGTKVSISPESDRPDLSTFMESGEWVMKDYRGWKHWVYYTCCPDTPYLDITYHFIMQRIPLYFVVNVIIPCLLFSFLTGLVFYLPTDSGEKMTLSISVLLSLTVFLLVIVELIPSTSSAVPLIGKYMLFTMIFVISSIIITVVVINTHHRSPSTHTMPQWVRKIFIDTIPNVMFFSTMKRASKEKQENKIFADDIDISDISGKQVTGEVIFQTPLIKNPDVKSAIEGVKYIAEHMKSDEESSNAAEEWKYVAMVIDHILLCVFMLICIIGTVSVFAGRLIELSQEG
# T1 sequence (P02712 25-493): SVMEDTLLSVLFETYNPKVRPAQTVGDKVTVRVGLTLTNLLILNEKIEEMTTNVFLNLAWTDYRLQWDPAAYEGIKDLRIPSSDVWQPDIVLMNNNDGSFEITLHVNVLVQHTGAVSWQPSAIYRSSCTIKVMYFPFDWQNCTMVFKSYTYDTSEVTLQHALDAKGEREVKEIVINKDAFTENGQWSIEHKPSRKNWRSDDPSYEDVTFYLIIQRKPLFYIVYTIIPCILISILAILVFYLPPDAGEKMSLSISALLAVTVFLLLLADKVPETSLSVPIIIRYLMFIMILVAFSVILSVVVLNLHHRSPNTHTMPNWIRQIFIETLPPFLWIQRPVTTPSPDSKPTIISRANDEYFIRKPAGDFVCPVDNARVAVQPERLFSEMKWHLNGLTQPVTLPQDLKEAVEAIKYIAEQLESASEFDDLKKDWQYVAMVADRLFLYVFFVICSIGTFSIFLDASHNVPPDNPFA
# T1 sequence (P02714 18-506): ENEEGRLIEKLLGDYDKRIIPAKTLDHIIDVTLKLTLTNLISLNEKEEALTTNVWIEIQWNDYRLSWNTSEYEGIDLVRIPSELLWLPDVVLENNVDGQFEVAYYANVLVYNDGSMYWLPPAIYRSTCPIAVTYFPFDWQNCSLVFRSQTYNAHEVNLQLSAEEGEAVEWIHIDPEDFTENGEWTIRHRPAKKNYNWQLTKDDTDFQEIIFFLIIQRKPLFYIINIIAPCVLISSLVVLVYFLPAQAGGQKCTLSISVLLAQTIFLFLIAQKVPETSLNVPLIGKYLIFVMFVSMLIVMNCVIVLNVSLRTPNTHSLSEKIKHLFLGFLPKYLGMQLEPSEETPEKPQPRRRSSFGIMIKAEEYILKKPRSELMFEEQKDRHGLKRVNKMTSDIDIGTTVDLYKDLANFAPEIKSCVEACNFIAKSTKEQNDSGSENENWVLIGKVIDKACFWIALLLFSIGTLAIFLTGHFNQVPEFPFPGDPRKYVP
# T1 sequence (P02718 22-522): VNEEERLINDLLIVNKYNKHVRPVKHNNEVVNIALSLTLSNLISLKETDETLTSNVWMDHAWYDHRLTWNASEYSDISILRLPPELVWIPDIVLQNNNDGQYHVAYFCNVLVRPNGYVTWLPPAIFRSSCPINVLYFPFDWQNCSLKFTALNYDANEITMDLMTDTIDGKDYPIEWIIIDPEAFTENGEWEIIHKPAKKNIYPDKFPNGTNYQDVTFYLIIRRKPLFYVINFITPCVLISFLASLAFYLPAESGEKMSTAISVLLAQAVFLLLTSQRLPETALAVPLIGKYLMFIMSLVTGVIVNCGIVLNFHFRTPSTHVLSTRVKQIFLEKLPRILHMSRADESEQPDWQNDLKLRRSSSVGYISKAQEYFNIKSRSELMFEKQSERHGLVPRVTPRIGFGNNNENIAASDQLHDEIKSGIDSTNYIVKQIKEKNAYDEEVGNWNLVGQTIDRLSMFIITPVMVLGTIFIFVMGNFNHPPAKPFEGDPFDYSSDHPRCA
compound,measurement,setting,value
"CC(=O)[C@H]1CC[C@H]2[C@@H]3CC[C@H]4C[C@H](O)CC[C@]4(C)[C@H]3CC[C@]12C [Allopregnanolone, 3α-hydroxy-5α-pregnan-20-one]",IC50,[1],20 µM
"N[C@@H](Cc1cc(I)c(Oc2ccc(O)c(I)c2)c(I)c1)C(=O)O [T3, L-3,3’,5-triiodothyronine]","pK3, hydroxy group",[2],12.25
pregnenolone sulfate [PS],apparent maximal effect: reduction of the nAChR control response,[3],81 ± 4%
same,Decay Response Mean,"[4]; dose 0.1 μM, pH 6, 30 μM acetylcholine",17.0
same,Decay Response Mean,"[4]; dose 0.1 μM, pH 6.5, 30 μM acetylcholine",26.2
same,Decay Response Mean,"[4]; dose 0.1 μM, pH 7, 30 μM acetylcholine",32.7
same,Decay Response Mean,"[4]; dose 0.1 μM, pH 7.5, 30 μM acetylcholine",32.3
same,Decay Response Mean,"[4]; dose 0.1 μM, pH 8, 30 μM acetylcholine",20.8
same,Decay Response Mean,"[4]; dose 0.1 μM, pH 8.5, 30 μM acetylcholine",7.9
same,Decay Response Mean,"[4]; dose 0.1 μM, pH 9, 30 μM acetylcholine",31.9
same,Decay Response Mean,"[4]; dose 1 μM, pH 6, 30 μM acetylcholine",8.1
same,Decay Response Mean,"[4]; dose 1 μM, pH 6.5, 30 μM acetylcholine",24.9
same,Decay Response Mean,"[4]; dose 1 μM, pH 7, 30 μM acetylcholine",13.0
same,Decay Response Mean,"[4]; dose 1 μM, pH 7.5, 30 μM acetylcholine",11.9
same,Decay Response Mean,"[4]; dose 1 μM, pH 8, 30 μM acetylcholine",9.4
same,Decay Response Mean,"[4]; dose 1 μM, pH 8.5, 30 μM acetylcholine",1.2
same,Decay Response Mean,"[4]; dose 1 μM, pH 9, 30 μM acetylcholine",18.5
same,Decay Response Mean,"[4]; dose 10 μM, pH 6, 30 μM acetylcholine",10.5
same,Decay Response Mean,"[4]; dose 10 μM, pH 6.5, 30 μM acetylcholine",11.00
same,Decay Response Mean,"[4]; dose 10 μM, pH 7, 30 μM acetylcholine",4.6
same,Decay Response Mean,"[4]; dose 10 μM, pH 7.5, 30 μM acetylcholine",4.8
same,Decay Response Mean,"[4]; dose 10 μM, pH 8, 30 μM acetylcholine",3.0
same,Decay Response Mean,"[4]; dose 10 μM, pH 8.5, 30 μM acetylcholine",3.2
